Consider 22 compounds from ChEMBL document CHEMBL1153822, “Conformationally constrained peptidomimetic inhibitors of signal transducer and activator of transcription. 3: Evaluation and molecular modeling” (J Med Chem, 2009).

Numbered stars: 1 amine (or outer) side, 2 acyl side, 3 side chain; on linkers, the order of the positions; unused ones are H or OH. Square brackets hold non-standard residues; d marks the D form. Peptide text beside a SMILES is read from it. * marks the point of attachment. X4 = O=C([C@@H]1Cc2ccc(OP(=O)(O)O)cc2CN1[*:1])[*:2]; pY = N[C@@H](Cc1ccc(OP(=O)(O)O)cc1)C(=O)O; X7 = O=C(Cc1c[nH]c2ccc(OP(=O)(O)O)cc12)*; aThr = C[C@H](O)[C@H](N)C(=O)O Bounds are passed on as bounds.

Signal transducer and activator of transcription 3, sequence (P40763 whole entry): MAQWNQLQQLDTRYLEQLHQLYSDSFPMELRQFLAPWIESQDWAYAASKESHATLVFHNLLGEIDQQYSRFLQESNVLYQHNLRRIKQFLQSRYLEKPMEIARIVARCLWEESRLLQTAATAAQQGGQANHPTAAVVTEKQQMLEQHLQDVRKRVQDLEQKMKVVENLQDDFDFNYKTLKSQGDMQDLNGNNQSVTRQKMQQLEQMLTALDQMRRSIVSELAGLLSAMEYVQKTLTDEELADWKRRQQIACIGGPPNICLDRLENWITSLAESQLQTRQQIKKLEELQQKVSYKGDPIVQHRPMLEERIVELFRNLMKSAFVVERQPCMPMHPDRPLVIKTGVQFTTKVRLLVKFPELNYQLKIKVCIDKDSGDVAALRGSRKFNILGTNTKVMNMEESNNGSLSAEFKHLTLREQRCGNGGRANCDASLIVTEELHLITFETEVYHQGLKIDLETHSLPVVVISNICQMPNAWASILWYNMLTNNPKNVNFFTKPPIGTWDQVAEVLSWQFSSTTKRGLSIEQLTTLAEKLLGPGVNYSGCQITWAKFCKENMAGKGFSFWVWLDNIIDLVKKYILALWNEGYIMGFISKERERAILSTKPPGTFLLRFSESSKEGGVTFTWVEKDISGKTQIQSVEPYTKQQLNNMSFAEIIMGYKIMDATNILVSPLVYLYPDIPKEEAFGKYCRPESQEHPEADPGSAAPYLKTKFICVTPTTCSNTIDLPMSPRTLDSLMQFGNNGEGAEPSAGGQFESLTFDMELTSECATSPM

The assay concerns the target Signal transducer and activator of transcription 3 (Homo sapiens, UniProt P40763). As to the kind of experiment: Inhibition of Stat3 by fluorescence polarization assay. Background: Polarisation of emitted light reports the rotation of a fluorescent probe.
As for `O=C(O)CCCNC(=O)[C@@H]1Cc2cccc3c2N1C(=O)[C@@H](NC(=O)/C=C/c1ccc(OP(=O)(O)O)cc1)CC3`, the IC50 – broadly, the concentration that inhibits the measured activity by half – was 0.815 µM.

Turning to `COC(=O)[C@H](CCC(N)=O)NC(=O)[C@@H]1Cc2cccc3c2N1C(=O)[C@@H](NC(=O)/C=C/c1ccc(OP(=O)(O)O)cc1)CC3`, the IC50 came out at 0.141 µM.

For `CS(=O)(=O)CC[C@H](NC(=O)[C@@H]1Cc2cccc3c2N1C(=O)[C@@H](NC(=O)/C=C/c1ccc(OP(=O)(O)O)cc1)CC3)C(N)=O`, 7.03 µM corresponded to half-maximal inhibition (IC50).

`NC(=O)CC[C@H](NC(=O)[C@@H]1Cc2cccc3c2N1C(=O)[C@@H](NC(=O)/C=C/c1ccc(OP(=O)(O)O)cc1)CC3)C(=O)NCc1ccccc1` came in with a half-inhibitory concentration (IC50) of 0.162 µM. Compared with the last compound, the IC50 is about 43-fold lower.

Regarding `NC(=O)CC[C@H](NC(=O)[C@@H]1Cc2cccc3c2N1C(=O)[C@@H](NC(=O)/C=C/c1ccc(OP(=O)(O)O)cc1)CC3)C(=O)O`, the IC50 came to 0.359 µM.

`CC(C)NC(=O)[C@H](CCC(N)=O)NC(=O)[C@@H]1Cc2cccc3c2N1C(=O)[C@@H](NC(=O)/C=C/c1ccc(OP(=O)(O)O)cc1)CC3` showed an IC50 of 0.305 µM.

With `NC(=O)CC[C@H](NC(=O)[C@@H]1Cc2cccc3c2N1C(=O)[C@@H](NC(=O)/C=C/c1ccc(OP(=O)(O)O)cc1)CC3)C(N)=O`, the midpoint of inhibition, the IC50, lay at 0.233 µM.

`C[S+]([O-])CC[C@H](NC(=O)[C@@H]1Cc2cccc3c2N1C(=O)[C@@H](NC(=O)/C=C/c1ccc(OP(=O)(O)O)cc1)CC3)C(N)=O` (some centres not stated) showed an IC50 of 7.6 µM.

Compound `NC(=O)CC[C@H](NC(=O)[C@@H]1CC[C@H]2CC[C@H](NC(=O)/C=C/c3ccc(OP(=O)(O)O)cc3)C(=O)N21)C(=O)NCc1ccccc1` registered an IC50 of 45.7 µM.

Compound `C[C@H](NC(=O)[C@@H]1Cc2cccc3c2N1C(=O)[C@@H](NC(=O)/C=C/c1ccc(OP(=O)(O)O)cc1)CC3)C(N)=O` had an IC50 of 25.1 µM. Compared with the last compound, the IC50 is about 1.8-fold lower.

As to `CC(C)C[C@H](NC(=O)Cc1c[nH]c2ccc(OP(=O)(O)O)cc12)C(=O)N1CCC[C@H]1C(=O)N[C@@H](CCC(N)=O)C(=O)N[C@H](C(N)=O)[C@@H](C)O` (X7-LPQT-NH2), the IC50 was over 100 µM.

`CCCC[C@H](NC(=O)[C@@H]1Cc2cccc3c2N1C(=O)[C@@H](NC(=O)/C=C/c1ccc(OP(=O)(O)O)cc1)CC3)C(N)=O`: the IC50 was determined as 19.2 µM.

Consider `NC(=O)CC[C@H](NC(=O)[C@@H]1Cc2cccc3c2N1C(=O)[C@@H](NC(=O)/C=C/c1ccc(OP(=O)(O)O)cc1)C=C3)C(=O)NCc1ccccc1`, for which the IC50 turned out to be 0.195 µM.

For `CC(=O)N1Cc2cc(OP(=O)(O)O)ccc2C[C@H]1C(=O)N[C@@H](CC(C)C)C(=O)N1CCC[C@H]1C(=O)N[C@@H](CCC(N)=O)C(=O)N[C@H](C(N)=O)[C@@H](C)O` (Ac-[X4]LPQT-NH2), the IC50 is over 100 µM.

The compound `CNC(=O)[C@H](CCC(N)=O)NC(=O)[C@@H]1Cc2cccc3c2N1C(=O)[C@@H](NC(=O)/C=C/c1ccc(OP(=O)(O)O)cc1)CC3` had an IC50 of 0.269 µM.

In turn, `NC(=O)CC[C@H](NC(=O)[C@@H]1Cc2cccc3c2N1C(=O)[C@@H](NC(=O)c1cc2cc(OP(=O)(O)O)ccc2[nH]1)CC3)C(=O)NCc1ccccc1` showed an IC50 of 0.19 µM.

In turn, `NC(=O)CC[C@H](NC(=O)[C@H]1CC[C@H]2CC[C@H](NC(=O)/C=C/c3ccc(OP(=O)(O)O)cc3)C(=O)N21)C(=O)NCc1ccccc1` came in with a half-maximal inhibitory concentration (IC50) of 59.8 µM.

In the case of `CC(=O)N[C@@H](Cc1ccc(OP(=O)(O)O)cc1)C(=O)N[C@@H](CC(C)C)C(=O)N1CCC[C@H]1C(=O)N[C@@H](CCC(N)=O)C(=O)N[C@H](C(N)=O)[C@H](C)O` (Ac-[pY]LPQ[aThr]-NH2), the IC50 is 0.739 µM.

For the compound `CC(C)C[C@H](NC(=O)/C=C/c1ccc(OP(=O)(O)O)cc1)C(=O)N1CCC[C@H]1C(=O)N[C@@H](CCC(N)=O)C(=O)NCc1ccccc1`, half-maximal inhibition (IC50) required 0.138 µM. This IC50 lies about 5.4-fold lower than the previous one.

`NC(=O)C1CCN(C(=O)[C@@H]2Cc3cccc4c3N2C(=O)[C@@H](NC(=O)/C=C/c2ccc(OP(=O)(O)O)cc2)CC4)C1` (some centres not stated) gave an IC50 of 0.595 µM.

The compound `NC(=O)[C@@H]1Cc2cccc3c2N1C(=O)[C@@H](NC(=O)/C=C/c1ccc(OP(=O)(O)O)cc1)CC3` displayed an IC50 of 35.6 µM.

Take `NC(=O)CC[C@H](NC(=O)[C@@H]1CC[C@@H]2CC[C@H](NC(=O)/C=C/c3ccc(OP(=O)(O)O)cc3)C(=O)N21)C(=O)NCc1ccccc1`: the IC50 is 0.604 µM.
